US10544130B2, “Metallo-beta-lactamase inhibitors” (priority 2015, dated 2020)

Tests used:
[1] = test system: Pseudomonas aeruginosa PAO1 MB9798 (efflux+, IMP-1); settings: ratio MITC95 PA 9798/MITC95 PA 9799; imipenem at 2 μg/mL
Summary of the method: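 Isogenic PAO1 pair (efflux+ MB9798, efflux− MB9799, both IMP-1) tested by microbroth MIC with fixed imipenem and/or ceftazidime, usually at CLSI breakpoint, plus fixed class A/C inhibitor against AmpC. MBL inhibitor titrated; concentration restoring susceptibility recorded and fold difference between strains taken as efflux extent.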

[2] = test system: Klebsiella pneumoniae expressing VIM-1 (IHMA599644); type: cell-based; settings: with imipenem 1 μg/ml; 95% inhibition of bacterial growth
Summary of the method: (§1)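 Growth read by absorbance after 22–24 h at 35 °C in CAMHB, with test compound alone or combined with 1 μg/ml imipenem. Inocula came from overnight 35 °C blood-agar colonies, set to a defined OD600 and diluted 1:100. Value is the inhibitor concentration giving synergy.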

[3] = test system: Serratia marcescens expressing IMP-1 (CL5741); type: cell-based; settings: with imipenem 1 μg/ml; 95% inhibition of bacterial growth
Summary of the method: as §1

[4] = test system: Escherichia coli expressing NDM-1 (CLB30005, CLB30016); type: cell-based; settings: with imipenem 1 μg/ml; 95% inhibition of bacterial growth
Summary of the method: as §1

Row | Compound | Efflux ratio [1] | Klebsiella pneumoniae (VIM-1) MITC95 [2] [µM] | Serratia marcescens (IMP-1) MITC95 [3] [µM] | Escherichia coli (NDM-1) MITC95 [4] [µM]
1 | NCCNS(=O)(=O)c1ccc(-c2cccc(NC[C@H](O)CN)c2)c(-c2nn[nH]n2)c1S(N)(=O)=O [Example 351, (R)-3′-((3-amino-2-hydroxypropyl)amino)-N4-(2-aminoethyl)-2-(2H-tetrazol-5-yl)-[1,1′-biphenyl]-3,4-disulfonamide] | 2.00 | 1.563 | 1.563 | 0.7813
2 | NCCNS(=O)(=O)c1ccc(-c2cccc3[nH]c(CCN)nc23)c(-c2nn[nH]n2)c1S(N)(=O)=O [Example 337, N1-(2-aminoethyl)-4-(2-(2-aminoethyl)-1H-benzo[d]imidazol-4-yl)-3-(2H-tetrazol-5-yl)benzene-1,2-disulfonamide] | 2.00 | 0.7813 | 0.7813 | 0.7813
3 | NCCNS(=O)(=O)c1ccc(-c2cccc(C(=O)NC[C@H](O)CN)c2)c(-c2nn[nH]n2)c1S(N)(=O)=O [Example 346, (R)—N-(3-amino-2-hydroxypropyl)-4′-(N-(2-aminoethyl)sulfamoyl)-3′-sulfamoyl-2′-(2H-tetrazol-5-yl)-[1,1′-biphenyl]-3-carboxamide] | 2.00 | 1.563 | 1.563 | 1.563
4 | NCCNS(=O)(=O)c1ccc(-c2cccc(SC[C@@H](O)CN)c2)c(-c2nn[nH]n2)c1S(N)(=O)=O [Example 357, (S)-5′-(3-amino-2-hydroxypropylthio)-N4-(2-aminoethyl)-2-(2H-tetrazol-5-yl)biphenyl-3,4-disulfonamide] | 2.00 | 0.7813 | 0.7813 | 0.7813
5 | NCCNS(=O)(=O)c1ccc(-c2cccc3[nH]c([C@@H](N)CN)nc23)c(-c2nn[nH]n2)c1S(N)(=O)=O [Example 336, (S)—N1-(2-aminoethyl)-4-(2-(1,2-diaminoethyl)-1H-benzo[d]imidazol-4-yl)-3-(2H-tetrazol-5-yl)benzene-1,2-disulfonamide] | 2.00 | 3.125 | 3.125 | 1.563
6 | NCCNS(=O)(=O)c1ccc(-c2cccc(SC[C@H](O)CN)c2)c(-c2nn[nH]n2)c1S(N)(=O)=O [Example 356, (R)-3′-((3-amino-2-hydroxypropyl)thio)-N4-(2-aminoethyl)-2-(2H-tetrazol-5-yl)-[1,1′-biphenyl]-3,4-disulfonamide] | 2.00 | 0.7813 | 0.7813 | 0.7813
7 | CN([C@H]1CCNC1)S(=O)(=O)c1ccc(-c2cccc3[nH]c(N)nc23)c(-c2nn[nH]n2)c1S(N)(=O)=O [Example 244, (S)-4-(2-amino-1H-benzo[d]imidazol-7-yl)-N1-methyl-N1-(pyrrolidin-3-yl)-3-(1H-tetrazol-5-yl)benzene-1,2-disulfonamide] | 2.00 | 1.563 | 1.563 | 0.7813
8 | NCCn1nc2cccc(-c3ccc(S(=O)(=O)N[C@@H]4CCNC4)c(S(N)(=O)=O)c3-c3nn[nH]n3)c2n1 [Example 279, (R)-4-(2-(2-aminoethyl)-2H-benzo[d][1,2,3]triazol-4-yl)-N1-(pyrrolidin-3-yl)-3-(2H-tetrazol-5-yl)benzene-1,2-disulfonamide] | 1.00 | 0.7813 | 0.7813 | 0.7813
9 | NCCNS(=O)(=O)c1ccc(C2=CC(N)CCC2)c(-c2nn[nH]n2)c1S(N)(=O)=O (stereo not shown) [Example 338, 5′-Amino-N4-(2-aminoethyl)-2-(2H-tetrazol-5-yl)-2′,3′,4′,5′-tetrahydro-[1,1′-biphenyl]-3,4-disulfonamide] | 4.00 | 1.563 | 1.563 | 1.563
10 | NCCN1CC[C@@H](NS(=O)(=O)c2ccc(-c3cccc4[nH]c(N)nc34)c(-c3nn[nH]n3)c2S(N)(=O)=O)C1 [Example 246, (R)-4-(2-amino-1H-benzo[d]imidazol-4-yl)-N1-(1-(2-aminoethyl)pyrrolidin-3-yl)-3-(2H-tetrazol-5-yl)benzene-1,2-disulfonamide] | 2.00 | 1.563 | 1.563 | 0.7813
11 | Cn1nc2cccc(-c3ccc(S(=O)(=O)N[C@@H]4CCNC4)c(S(N)(=O)=O)c3-c3nn[nH]n3)c2n1 [Example 281, (R)-4-(2-methyl-2H-benzo[d][1,2,3]triazol-4-yl)-N1-(pyrrolidin-3-yl)-3-(2H-tetrazol-5-yl)benzene-1,2-disulfonamide] | 2.00 | 3.125 | 1.563 | 1.563
12 | NCCNS(=O)(=O)c1ccc(-c2cccc3[nH]c(CN)nc23)c(-c2nn[nH]n2)c1S(N)(=O)=O [Example 343] | 1.00 | 0.7813 | 0.7813 | 0.7813
13 | NC[C@@H](CO)NS(=O)(=O)c1ccc(-c2cccc(N)n2)c(-c2nn[nH]n2)c1S(N)(=O)=O [Example 382, (S)—N1-(1-amino-3-hydroxypropan-2-yl)-4-(6-aminopyridin-2-yl)-3-(2H-tetrazol-5-yl)benzene-1,2-disulfonamide] | 1.00 | 3.125 | 1.563 | 1.563
14 | NCCNS(=O)(=O)c1ccc(-c2cccc3[nH]c([C@H](N)CN)nc23)c(-c2nn[nH]n2)c1S(N)(=O)=O [Example 335, (R)—N1-(2-aminoethyl)-4-(2-(1,2-diaminoethyl)-1H-benzo[d]imidazole-4-yl)-3-(2H-tetrazol-5-yl)benzene-1,2-disulfonamide] | 2.00 | 3.125 | 3.125 | 1.563
15 | NCCNS(=O)(=O)c1ccc(-c2cccc(NC[C@H](N)CO)c2)c(-c2nn[nH]n2)c1S(N)(=O)=O [Example 350, (S)-3′-((2-amino-3-hydroxypropyl)amino)-N4-(2-aminoethyl)-2-(2H-tetrazol-5-yl)-[1,1′-biphenyl]-3,4-disulfonamide] | 1.00 | 0.7813 | 0.7813 | 0.7813
16 | NCCNS(=O)(=O)c1ccc(-c2cccc(NC[C@@H](N)CO)c2)c(-c2nn[nH]n2)c1S(N)(=O)=O [Example 349, (R)-3′-((2-amino-3-hydroxypropyl)amino)-N4-(2-aminoethyl)-2-(2H-tetrazol-5-yl)-[1,1′-biphenyl]-3,4-disulfonamide] | 2.00 | 1.563 | 1.563 | 1.563
